Where two headings read alike, the source gives them in different places.
Experiments:
[1] = target: T1, baculovirus-expressed ALK (Homo sapiens, UniProt Q9UM73); assay: ALK Kinase Assay (ELISA-type, time-resolved fluorescence); assay type: biochemical
T1 construct: host or cells: baculovirus expression system
Procedure, shortened: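 Wells were coated with phospholipase C-γ at 10 μg/mL in Tris-buffered saline. Adding 30 ng/ml enzyme started the reaction, which ran at 37° C for 15 minutes before Eu-N1 PT66 antibody detection. Percent inhibition versus log10 concentration gave IC50 by variable-slope fit.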

[2] = target: T2, c-Met (cytoplasmic domain) (Homo sapiens, UniProt P08581); assay: c-Met Kinase Assay (same methods as for ALK, with modifications); assay type: biochemical
T2 construct: 10 ng/mL c-Met (cytoplasmic domain, Invitrogen Corporation #PV3143); purchased Invitrogen Corporation PV3143
Procedure, shortened: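 IC50 values were fitted by variable-slope sigmoidal regression of percent inhibition against log compound concentration. Phosphorylation was read with Eu-N1 PT66 antibody after a 15 min, 37 °C reaction. The reaction was initiated with 10 ng/mL c-Met cytoplasmic domain on wells coated with 10 μg/mL PLC-γ in TBS.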

[3] = 1 μM ATP (Km level), read-out: ALK Activity (ALK Kinase Inhibition, IC50)
[4] = 1 μM ATP (Km level), read-out: cMet Activity (c-Met Kinase Inhibition, IC50)
[5] = ALK kinase inhibition, 1 μM ATP (Km level), read-out: ALK Activity
[6] = c-Met kinase inhibition, 1 μM ATP (Km level), read-out: cMet Activity
[7] = ALK kinase inhibition, 1 μM ATP, read-out: ALK Activity
[8] = c-Met kinase inhibition, 1 μM ATP, read-out: cMet Activity

T2 sequence (P08581 956-1390 limits assumed): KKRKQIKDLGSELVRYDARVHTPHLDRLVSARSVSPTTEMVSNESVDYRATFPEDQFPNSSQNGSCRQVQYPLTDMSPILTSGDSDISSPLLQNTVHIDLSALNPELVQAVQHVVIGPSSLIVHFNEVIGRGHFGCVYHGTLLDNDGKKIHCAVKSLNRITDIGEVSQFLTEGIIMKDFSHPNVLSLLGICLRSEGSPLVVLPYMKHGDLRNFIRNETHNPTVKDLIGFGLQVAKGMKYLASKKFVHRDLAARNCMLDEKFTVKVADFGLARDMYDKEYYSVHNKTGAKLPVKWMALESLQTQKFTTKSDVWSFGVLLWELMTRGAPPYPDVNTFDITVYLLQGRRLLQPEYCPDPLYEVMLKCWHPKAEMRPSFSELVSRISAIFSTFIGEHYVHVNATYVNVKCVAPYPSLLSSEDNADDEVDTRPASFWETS
T1 sequence (Q9UM73 19-1620): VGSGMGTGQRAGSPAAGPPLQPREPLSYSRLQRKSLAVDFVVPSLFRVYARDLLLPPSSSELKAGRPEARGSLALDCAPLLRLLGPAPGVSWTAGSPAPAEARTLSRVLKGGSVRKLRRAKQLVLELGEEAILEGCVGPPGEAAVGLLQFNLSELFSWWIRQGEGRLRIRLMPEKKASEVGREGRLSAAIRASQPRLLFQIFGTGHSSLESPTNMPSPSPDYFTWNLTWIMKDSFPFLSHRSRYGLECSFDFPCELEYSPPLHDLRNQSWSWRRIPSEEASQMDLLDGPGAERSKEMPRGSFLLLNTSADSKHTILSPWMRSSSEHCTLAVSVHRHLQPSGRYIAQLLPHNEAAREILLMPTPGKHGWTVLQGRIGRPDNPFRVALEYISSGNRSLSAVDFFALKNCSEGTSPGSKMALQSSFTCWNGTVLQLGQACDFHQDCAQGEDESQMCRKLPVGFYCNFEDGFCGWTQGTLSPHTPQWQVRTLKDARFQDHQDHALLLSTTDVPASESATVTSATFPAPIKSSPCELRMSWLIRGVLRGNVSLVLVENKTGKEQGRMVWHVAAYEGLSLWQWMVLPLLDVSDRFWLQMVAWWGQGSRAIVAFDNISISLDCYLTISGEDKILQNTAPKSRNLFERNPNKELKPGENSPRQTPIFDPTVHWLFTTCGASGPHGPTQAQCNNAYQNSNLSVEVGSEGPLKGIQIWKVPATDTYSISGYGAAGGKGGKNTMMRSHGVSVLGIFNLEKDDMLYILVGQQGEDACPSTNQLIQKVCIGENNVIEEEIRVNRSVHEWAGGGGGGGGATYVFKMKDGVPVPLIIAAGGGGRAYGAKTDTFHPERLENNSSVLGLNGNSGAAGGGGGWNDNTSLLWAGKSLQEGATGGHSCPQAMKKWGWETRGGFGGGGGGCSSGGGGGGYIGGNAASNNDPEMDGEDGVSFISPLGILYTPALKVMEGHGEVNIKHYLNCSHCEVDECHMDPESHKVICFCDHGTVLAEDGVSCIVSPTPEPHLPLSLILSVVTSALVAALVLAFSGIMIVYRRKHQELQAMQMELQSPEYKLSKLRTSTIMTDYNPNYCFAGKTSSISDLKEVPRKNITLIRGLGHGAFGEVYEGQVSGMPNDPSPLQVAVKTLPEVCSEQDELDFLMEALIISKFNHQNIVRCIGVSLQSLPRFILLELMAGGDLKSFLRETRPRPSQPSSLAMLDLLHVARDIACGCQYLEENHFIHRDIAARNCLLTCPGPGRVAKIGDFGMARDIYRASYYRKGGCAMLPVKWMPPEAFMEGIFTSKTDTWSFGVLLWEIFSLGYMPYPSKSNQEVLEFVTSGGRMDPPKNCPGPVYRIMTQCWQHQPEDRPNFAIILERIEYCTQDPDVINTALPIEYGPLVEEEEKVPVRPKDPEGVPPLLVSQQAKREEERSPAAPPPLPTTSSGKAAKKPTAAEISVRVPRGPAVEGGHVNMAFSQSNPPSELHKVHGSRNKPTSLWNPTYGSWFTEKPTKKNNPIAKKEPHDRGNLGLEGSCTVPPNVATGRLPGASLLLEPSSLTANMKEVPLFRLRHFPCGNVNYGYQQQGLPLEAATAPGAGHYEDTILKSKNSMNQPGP

With `COc1c(Nc2ncc(Cl)c(N[C@@H]3CCCC[C@H]3NS(C)(=O)=O)n2)ccc2c1CCCC(N1CCOCC1)C2` (stereo partly drawn) [Example 949, N-{(1R,2R)-2-[5-Chloro-2-(1-methoxy-6-morpholin-4-yl-6,7,8,9-tetrahydro-5H-benzocyclohepten-2-ylamino)-pyrimidin-4-ylamino]-cyclohexyl}-methanesulfonamide] the IC50 [1, 3] was < 100 nM and the IC50 [2, 4] was > 10000 nM.

In the case of `COc1cc2c(cc1Nc1ncc(Cl)c(Nc3ccc(N4CCN(C5CCN(C)CC5)CC4)cc3OC)n1)CCN(CC(=O)N(C)C)CC2` [Example 835, 2-[7-(5-Chloro-4-{2-methoxy-4-[4-(1-methyl-piperidin-4-yl)-piperazin-1-yl]-phenylamino}-pyrimidin-2-ylamino)-8-methoxy-1,2,4,5-tetrahydro-benzo[d]azepin-3-yl]-N,N-dimethyl-acetamide], the IC50 [1, 3] is reported as < 100 nM and the IC50 [2, 4] is reported as > 10000 nM.

For `CNC(=O)c1cccc(F)c1Nc1nc(Nc2ccc3c(c2)CCC(N2CCN(C)CC2)CC3)ncc1Cl` (racemic) [Example 899, 2-{5-Chloro-2-[7-(4-methyl-piperazin-1-yl)-6,7,8,9-tetrahydro-5H-benzocyclohepten-2-ylamino]-pyrimidin-4-ylamino}-3-fluoro-N-methyl-benzamide], the IC50 [1, 3] was < 100 nM and the IC50 [2, 4] was < 100 nM.

With `CCN1CCc2ccc(Nc3ncc(Cl)c(NC(C)(C)CNS(C)(=O)=O)n3)cc2CC1` [Example 307, N-{2-[5-Chloro-2-(3-ethyl-2,3,4,5-tetrahydro-1H-benzo[d]azepin-7-ylamino)-pyrimidin-4-ylamino]-2-methyl-propyl}-methanesulfonamide] the IC50 [1, 5] was 1000 to 10000 nM and the IC50 [2, 6] was > 10000 nM.

For `CCN1C(=O)OCCc2ccc(Nc3ncc(Cl)c(Nc4ccsc4C(=O)NC)n3)cc21` [Example 1883, 3-[5-Chloro-2-(5-ethyl-6-oxo-5,6,8,9-tetrahydro-7-oxa-5-aza-benzocyclohepten-3-ylamino)-pyrimidin-4-ylamino]-thiophene-2-carboxylic acid methylamide], the IC50 [1, 5] was < 100 nM and the IC50 [2, 6] was < 100 nM.

In the case of `COc1cc2c(cc1Nc1ncc(Cl)c(N[C@H]3[C@@H](C(N)=O)[C@@H]4C=C[C@H]3C4)n1)N(C)C(=O)CN(CC#N)C2` [Example 744, (1S,2S,3R,4R)-3 [5-Chloro-2-(4-cyanomethyl-7-methoxy-1-methyl-2-oxo-2,3,4,5-tetrahydro-1H-benzo[e][1,4]diazepin-8-ylamino)-pyrimidin-4-ylamino]-bicyclo(2.2.1)hept-5-ene-2-carboxylic acid amide], the IC50 [1, 3] is reported as 100 to 1000 nM and the IC50 [2, 4] is reported as > 10000 nM.

With `Cc1cccnc1-c1ccccc1Nc1nc(Nc2ccc3c(c2)CCC(NCC(F)(F)F)CC3)ncc1Cl` (stereo not shown) [Example 657, 5-Chloro-N*4*-[2-(3-methyl-pyridin-2-yl)-phenyl]-N*2*-[7-(2,2,2-trifluoro-ethylamino)-6,7,8,9-tetrahydro-5H-benzocyclohepten-2-yl]-pyrimidine-2,4-diamine] the IC50 [1, 3] was 100 to 1000 nM and the IC50 [2, 4] was > 10000 nM.

For `COc1cc(N2CCOCC2)ccc1Nc1nc(Nc2ccc3c(c2)CCCCN3C)ncc1Cl` [Example 105, 5-Chloro-N*4*-(2-methoxy-4-morpholin-4-yl-phenyl)-N*2*-(1-methyl-2,3,4,5-tetrahydro-1H-benzo[b]azepin-7-yl)-pyrimidine-2,4-diamine], the IC50 [1, 5] was < 100 nM and the IC50 [2, 6] was > 10000 nM.

`CCN1C(=O)CCC(C)(C)c2ccc(Nc3ncc(Cl)c(Nc4ccccc4S(=O)(=O)N(C)C)n3)cc21` [Example 1595, 2-[5-Chloro-2-(1-ethyl-5,5-dimethyl-2-oxo-2,3,4,5-tetrahydro-1H-benzo[b]azepin-8-ylamino)-pyrimidin-4-ylamino]-N,N-dimethyl-benzenesulfonamide] was tested, and the IC50 [1, 7] was < 100 nM and the IC50 [2, 8] was < 100 nM.

`CNC(=O)c1ccccc1Nc1nc(Nc2c(OC)ccc3c2C(=O)N(C)CCC3)ncc1Cl` [Example 114, 2-[5-Chloro-2-(8-methoxy-2-methyl-1-oxo-2,3,4,5-tetrahydro-1H-benzo[c]azepin-9-ylamino)-pyrimidin-4-ylamino]-N-methyl-benzamide] was tested, and the IC50 [1, 5] was > 10000 nM and the IC50 [2, 6] was > 10000 nM.

With `COc1c(Nc2ncc(Cl)c(Nc3ccccc3S(=O)(=O)N3CCCC3)n2)ccc2c1CCC(NCCO)CC2` (stereo not shown) [Example 704, 2-(2-{5-Chloro-4-[2-(pyrrolidine-1-sulfonyl)-phenylamino]-pyrimidin-2-ylamino}-1-methoxy-6,7,8,9-tetrahydro-5H-benzocyclohepten-7-ylamino)-ethanol] the IC50 [1, 3] was < 100 nM and the IC50 [2, 4] was 100 to 1000 nM.

In the case of `CNC(=O)c1cccc(F)c1Nc1nc(Nc2ccc3c(c2)N(CCOC)CCCC3(C)C)ncc1Cl` [Example 1599, 2-{5-Chloro-2-[1-(2-methoxy-ethyl)-5,5-dimethyl-2,3,4,5-tetrahydro-1H-benzo[b]azepin-8-ylamino]-pyrimidin-4-ylamino}-3-fluoro-N-methyl-benzamide], the IC50 [1, 7] is reported as < 100 nM and the IC50 [2, 8] is reported as < 100 nM.

For `COc1c(Nc2ncc(Cl)c(Nc3ccccc3-n3cccn3)n2)ccc2c1CCC(NCC(F)F)CC2` (stereo not shown) [Example 689, 5-Chloro-N*2*-[7-(2,2-difluoro-ethylamino)-1-methoxy-6,7,8,9-tetrahydro-5H-benzocyclohepten-2-yl]-N*4*-(2-pyrazol-1-yl-phenyl)-pyrimidine-2,4-diamine], the IC50 [1, 3] was < 100 nM and the IC50 [2, 4] was > 10000 nM.

`CNC(=O)c1cccc(O)c1Nc1nc(Nc2ccc3c(c2)CCN(CCOC)CC3)ncc1Cl` [Example 1227, 2-{5-Chloro-2-[3-(2-methoxy-ethyl)-2,3,4,5-tetrahydro-1H-3-benzazepin-7-ylamino]-pyrimidin-4-ylamino}-3-hydroxy-N-methyl-benzamide] gave an IC50 ([1]; 1 μM ATP (Km level), 30 ng/ml ALK, 37° C., 15 minutes, read-out: ALK Activity (ALK kinase inhibition, IC50 class)) of 100 to 1000 nM and an IC50 ([2]; 1 μM ATP (Km level), 10 ng/mL c-Met, read-out: cMet Activity (c-Met kinase inhibition, IC50 class)) of 100 to 1000 nM.

For `CN1C(=O)CCC(C)(C)c2cc(Nc3ncc(Cl)c(N[C@@H]4CCCC[C@H]4NS(C)(=O)=O)n3)ccc21` [Example 385, N-{(1R,2R)-2-[5-Chloro-2-(1,5,5-trimethyl-2-oxo-2,3,4,5-tetrahydro-1H-benzo[b]azepin-7-ylamino)-pyrimidin-4-ylamino]-cyclohexyl}-methanesulfonamide], the IC50 [1, 5] was < 100 nM and the IC50 [2, 6] was 100 to 1000 nM.

`CNC(=O)c1cc(F)cc(Cl)c1Nc1nc(Nc2ccc3c(c2)CCOC(=O)N3C)ncc1Cl` [Example 1758, 3-Chloro-2-[5-chloro-2-(5-methyl-6-oxo-5,6,8,9-tetrahydro-7-oxa-5-aza-benzocyclohepten-2-ylamino)-pyrimidin-4-ylamino]-5-fluoro-N-methyl-benzamide] was tested, and the IC50 [1, 7] was 1000 to 10000 nM and the IC50 [2, 8] was < 100 nM.

For `COc1cc2c(cc1Nc1ncc(F)c(Nc3ccc(N4CCN(C)CC4)cc3OC)n1)CCN(CCS(C)(=O)=O)CC2` [Example 805, 5-Fluoro-N*2*-[3-(2-methanesulfonyl-ethyl)-8-methoxy-2,3,4,5-tetrahydro-1H-benzo[d]azepin-7-yl]-N*4*-[2-methoxy-4-(4-methyl-piperazin-1-yl)-phenyl]-pyrimidine-2,4-diamine], the IC50 [1, 3] was < 100 nM and the IC50 [2, 4] was > 10000 nM.

`Cn1ccnc1-c1ccccc1Nc1nc(Nc2ccc3c(c2)CCCC(=O)N3)ncc1Cl` [Example 994, 7-{5-Chloro-4-[2-(1-methyl-1H-imidazol-2-yl)-phenylamino]-pyrimidin-2-ylamino}-1,3,4,5-tetrahydro-benzo[b]azepin-2-one] was tested, and the IC50 [1, 3] was < 100 nM and the IC50 [2, 4] was > 10000 nM.

`CNC(=O)c1cc(F)ccc1Nc1nc(Nc2ccc3c(c2)CCOC(=O)N3C)ncc1Cl` [Example 1752, 2-[5-Chloro-2-(5-methyl-6-oxo-5,6,8,9-tetrahydro-7-oxa-5-aza-benzocyclohepten-2-ylamino)-pyrimidin-4-ylamino]-5-fluoro-N-methyl-benzamide] was tested, and the IC50 [1, 7] was < 100 nM and the IC50 [2, 8] was < 100 nM.

With `CNC(=O)c1cc(-c2cnn(C)c2)cc(F)c1Nc1nc(Nc2ccc3c(c2)NC(=O)CCC3(C)C)ncc1Cl` [Example 1624, 2-[5-Chloro-2-(5,5-dimethyl-2-oxo-2,3,4,5-tetrahydro-1H-benzo[b]azepin-8-ylamino)-pyrimidin-4-ylamino]-3-fluoro-N-methyl-5-(1-methyl-1H-pyrazol-4-yl)-benzamide] the IC50 [1, 7] was < 100 nM and the IC50 [2, 8] was < 100 nM.

In the case of `COc1c(Nc2ncc(Cl)c(Nc3ccccc3S(=O)(=O)C(C)C)n2)ccc2c1CCCC(N1CCOCC1)C2` (stereo not shown) [Example 947, 5-Chloro-N(2)-(1-methoxy-6-morpholin-4-yl-6,7,8,9-tetrahydro-5H-benzocyclohepten-2-yl)-N(4)-[2-(propane-2-sulfonyl)-phenyl]-pyrimidine-2,4-diamine], the IC50 [1, 3] is reported as < 100 nM and the IC50 [2, 4] is reported as > 10000 nM.

Compound `CC(C)[C@@H](Nc1nc(Nc2ccc3c(c2)CCOC(=O)N3C)ncc1Cl)C(N)=O` [Example 1763, (R)-2-[5-Chloro-2-(5-methyl-6-oxo-5,6,8,9-tetrahydro-7-oxa-5-aza-benzocyclohepten-2-ylamino)-pyrimidin-4-ylamino]-3-methyl-butyramide] has an IC50 [1, 7] of 1000 to 10000 nM and an IC50 [2, 8] of 1000 to 10000 nM.

`C=CCN1CCNC(=O)c2cccc(Nc3ncc(Cl)c(Nc4ccccc4C(=O)NC)n3)c21` [Example 545, 2-[2-(1-Allyl-5-oxo-2,3,4,5-tetrahydro-1H-benzo[e][1,4]diazepin-9-ylamino)-5-chloro-pyrimidin-4-ylamino]-N-methyl-benzamide] was tested, and the IC50 [1, 3] was 1000 to 10000 nM and the IC50 [2, 4] was > 10000 nM.

Reference: patent US8148391B2 (Cephalon, Inc., priority 2006, dated 2012)
